From the NIST ThermoML archive (doi:10.1016/j.tca.2019.02.008)
Numbers after ± are expanded uncertainties.

Legend:
[1] = for vapor or sublimation pressure: Transpiration method; for Triple point temperature: DSC
[2] = Molar enthalpy of transition or fusion; details: DSC

Br.CN [methylammonium bromide]
vapor or sublimation pressure [kPa], [1]
Details	433 K	444 K	454 K	463 K	468 K	473 K	488 K	493 K	498 K	503 K
Crystal 1	–	–	–	–	–	–	0.1234 ± 0.013	0.1563 ± 0.017	0.1897 ± 0.02	0.2394 ± 0.025
Crystal 2	0.0057 ± 0.0006	0.0104 ± 0.0011	0.0202 ± 0.0022	0.0348 ± 0.0037	0.0413 ± 0.0044	0.0576 ± 0.0061	–	–	–	–

Details	Molar enthalpy of transition or fusion, Crystal 2 [kcal/mol]	Molar enthalpy of transition or fusion, Crystal 3 [kcal/mol]	Triple point temperature, Crystal 1 [K]	Triple point temperature, Crystal 2 [K]	Triple point temperature, Crystal 3 [K]
[1]	–	–	520.5 ± 1	480.8 ± 1.1	392.1 ± 0.9
[2]	0.868 ± 0.0645	0.351 ± 0.0335	–	–	–
